# Like-named read-outs stand apart in the source and are kept apart here.
# Biological target: T1, androgen receptor (AR) (Homo sapiens, UniProt P10275)
# T1 sequence (P10275 1-920): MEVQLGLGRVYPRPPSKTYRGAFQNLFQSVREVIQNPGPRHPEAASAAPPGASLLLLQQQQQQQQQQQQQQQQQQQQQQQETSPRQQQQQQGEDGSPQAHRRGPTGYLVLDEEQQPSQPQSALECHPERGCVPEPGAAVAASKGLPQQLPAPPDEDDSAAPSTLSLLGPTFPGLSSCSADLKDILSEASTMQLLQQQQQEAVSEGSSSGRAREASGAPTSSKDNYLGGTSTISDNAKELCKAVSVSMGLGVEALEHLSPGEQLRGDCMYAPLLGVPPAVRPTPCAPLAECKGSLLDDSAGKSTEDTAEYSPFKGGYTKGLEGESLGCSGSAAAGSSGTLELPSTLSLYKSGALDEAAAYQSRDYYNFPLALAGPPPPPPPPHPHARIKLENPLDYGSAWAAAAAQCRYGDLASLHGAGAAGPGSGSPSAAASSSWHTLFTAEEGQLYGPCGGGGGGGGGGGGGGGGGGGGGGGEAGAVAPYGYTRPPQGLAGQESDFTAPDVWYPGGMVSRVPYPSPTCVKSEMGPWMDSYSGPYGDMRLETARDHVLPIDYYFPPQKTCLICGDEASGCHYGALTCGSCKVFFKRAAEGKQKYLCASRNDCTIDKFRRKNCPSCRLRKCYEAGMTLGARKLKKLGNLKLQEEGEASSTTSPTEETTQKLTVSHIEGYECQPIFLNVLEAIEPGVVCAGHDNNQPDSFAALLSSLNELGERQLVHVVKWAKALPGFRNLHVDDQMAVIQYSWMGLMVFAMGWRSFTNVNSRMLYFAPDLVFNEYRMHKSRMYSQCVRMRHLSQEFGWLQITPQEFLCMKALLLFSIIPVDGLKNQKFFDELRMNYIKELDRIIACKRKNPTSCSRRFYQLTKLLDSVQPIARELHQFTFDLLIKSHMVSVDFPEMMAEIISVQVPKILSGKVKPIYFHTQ
# Assay: Degradation of androgen receptor (AR) protein in VCaP cells by ELISA
# Format: cell-based
# Conditions: for Dmax: VCaP
# [1] = AR degradation, VCaP cells, 16 h, ELISA, Table 3-1, read-out: DC50
# [2] = AR degradation, VCaP cells, 16 h, ELISA, Table 3-1, read-out: Dmax (%)
# [3] = AR degradation, VCaP cells, 16 h, ELISA, Table 3-2, read-out: DC50
smiles,measurement,setting,value
N#Cc1ccc(O[C@H]2CC[C@H](NC(=O)c3cnc(N4CCC(CN5CCC6(CC5)CN(c5cc7c(cc5F)C(=O)N(C5CCC(=O)NC5=O)C7=O)C6)CC4)cn3)CC2)cc1Cl (stereo partly drawn) [Compound 233],DC50,[1],< 10 nM
same,Dmax,[2],> 80%
"[2H]C([2H])([2H])Oc1cc(O[C@H]2CC[C@H](NC(=O)c3cnc(N4CCC(CN5CCC6(CC5)CN(c5ccc7c(c5)C(=O)N(C5CCC(=O)NC5=O)C7=O)C6)CC4)nn3)CC2)ccc1C#N (stereo partly drawn) [Compound 197, N-((1r,4r)-4-(4-cyano-3-(methoxy-d3)phenoxy)cyclohexyl)-3-(4-((2-(2-(2,6-dioxopiperidin-3-yl)-1,3-dioxoisoindolin-5-yl)-2,7-diazaspiro[3.5]nonan-7-yl)methyl)piperidin-1-yl)-1,2,4-triazine-6-carboxamide]",inhibition at 0.1 µM,"percentage of degraded AR at 100 nM, VCaP cells, 16 h, ELISA, read-out: % degradation",> 80%
"N#Cc1ccc(OC2CCC(NC(=O)c3cn(C4CCC(CN5CCC6(CC5)CN(c5cc7c(cc5F)C(=O)N(C5CCC(=O)NC5=O)C7=O)C6)CC4)cn3)CC2)cc1Cl [Compound 112, N-((1r,4R)-4-(3-chloro-4-cyanophenoxy)cyclohexyl)-1-((1r,4R)-4-((2-(2,6-dioxopiperidin-3-yl)-6-fluoro-1,3-dioxoisoindolin-5-yl)-2,7-diazaspiro[3.5]nonan-7-yl)methyl)cyclohexyl)-1H-imidazole-4-carboxamide]",Dmax (%),,+ (key: ++++: >80%; +++: 80%-60%; ++: 60%-40%; +: <40%)
same,DC50,read-out: DC50,> 300 nM
"N#Cc1ccc(O[C@H]2CC[C@H](NC(=O)c3ccc(N4CCC5(CCN(CC6CCN(c7ccc8c(c7)C(=O)N(C7CCC(=O)NC7=O)C8=O)CC6)CC5)CC4)nn3)CC2)cc1Cl (stereo partly drawn) [Compound 262, N-((1r,4r)-4-(3-chloro-4-cyanophenoxy)cyclohexyl)-6-(9-((1-(2-(2,6-dioxopiperidin-3-yl)-1,3-dioxoisoindolin-5-yl)piperidine-4-yl)methyl)-3,9-diazaspiro[5.5]undecan-3-yl)pyridazine-3-formamide]",DC50,[1],< 10 nM
same,Dmax,[2],> 80%
CC1(C)[C@H](Oc2ccc(C#N)c(Cl)c2)C(C)(C)[C@H]1N1Cc2nc(N3CCC(CN4CCN(c5ccc6c(c5)C(=O)N(C5CCC(=O)NC5=O)C6=O)CC4)CC3)ncc2C1=O (stereo partly drawn) [Compound 383],DC50,[1],10 to 100 nM
same,Dmax,[2],> 80%
N#Cc1ccc(O[C@H]2CC[C@H](NC(=O)c3cnn([C@H]4CC[C@H](CN5CCC6(CC5)CN(c5cc7c(cc5F)C(=O)N(C5CCC(=O)NC5=O)C7=O)C6)CC4)n3)CC2)cc1Cl (stereo partly drawn) [Compound 117],DC50,[1],100 to 300 nM
same,Dmax,[2],> 80%
N#Cc1ccc(O[C@H]2CC[C@H](NC(=O)c3ccc(N4CCC(CN5CCC6(CC5)CN(c5ccc7c(c5)C(=O)N(C5CCC(=O)NC5=O)C7=O)C6)CC4)nn3)CC2)cc1C(F)(F)F (stereo partly drawn) [Compound 151],DC50,,< 10 nM
same,Dmax,,> 80%
"N#Cc1ccc(O[C@H]2CC[C@H](NC(=O)c3cnc(N4CCC(CN5CC6(CCN(c7cc8c(cc7F)C(=O)N(C7CCC(=O)NC7=O)C8=O)C6)C5)CC4)cn3)CC2)cc1Cl (stereo partly drawn) [Compound 188, N-((1r,4r)-4-(3-chloro-4-cyanophenoxy)cyclohexyl)-5-(4-((6-(2-(2,6-dioxopiperidin-3-yl)-6-fluoro-1,3-dioxoisoindolin-5-yl)-2,6-diazaspiro[3.4]octan-2-yl)methyl)piperidin-1-yl)pyrazine-2-carboxamide]",DC50,[1],< 10 nM
same,Dmax,[2],> 80%
"CC1(C)[C@H](Oc2ccc(C#N)c(Cl)c2)C(C)(C)[C@H]1N1Cc2nc(C#CC3CCC(N4CC5(CCN(c6cc7c(cc6F)C(=O)N(C6CCC(=O)NC6=O)C7=O)CC5)C4)CC3)ccc2C1=O (stereo partly drawn) [Compound 378, 2-Chloro-4-((1 r,3r)-3-(2-((4-(7-(2-(2,6-dioxopiperidin-3-yl)-6-fluoro-1,3-dioxoisoindolin-5-yl)-2,7-diazaspiro[3.5]nonan-2-yl)cyclohexyl)ethynyl)-5-oxo-5,7-dihydro-pyrrolo[3,4-b]pyridin-6-yl)-2,2,4,4-tetramethylcyclobutoxy) benzonitrile]",Dmax (%),"AR degradation, VCaP cells, 16 h, ELISA, Table 3-1",+ (<40%)
same,DC50,[1],> 300 nM
"N#Cc1ccc(O[C@H]2CC[C@H](NC(=O)c3cnc(N4CCC(CN5CCC6(CC5)CN(c5ccc7c(c5)C(=O)N(C5CCC(=O)NC5=O)C7=O)C6)CC4)cn3)CC2)cc1Cl (stereo partly drawn) [Compound 241, N-((1r,4r)-4-(3-chloro-4-cyanophenoxy)cyclohexyl)-6-(4-((2-(2-(2-,2,6-dioxopiperidin-3-yl)-1,3-dioxoisoindolin-5-yl)-2,7-diazaspiro[3.5]nonan-7-yl)methyl)piperidin-1-yl)pyrazine-3-carboxamide]",DC50,,< 10 nM
same,Dmax,,> 80%
"CC1(C)[C@H](Oc2ccc(C#N)c(Cl)c2)C(C)(C)[C@H]1N1Cc2nc(C#CC3CCC(N4CC5CC4CN5c4ccc5c(c4)C(=O)N(C4CCC(=O)NC4=O)C5=O)CC3)cnc2C1=O (stereo partly drawn) [Compound 388, 2-Chloro-4-((1r,3r)-3-(2-((4-(5-(2-(2,6-dioxopiperidin-3-yl)-1,3-dioxoisoindolin-5-yl)-2,5-diazabicyclo[2.2.1]heptan-2-yl)cyclohexyl)ethynyl)-5-oxo-5,7-dihydro-pyrrolo[3,4-b]pyrazine-26-yl)-2,2,4,4-tetramethylcyclobutoxy) benzonitrile]",Dmax (%),"AR degradation, VCaP cells, 16 h, ELISA, Table 3-2",++ (60%-40%)
same,DC50,[3],100 to 300 nM
CN(C1CCN(c2ccc(C(=O)N[C@H]3CC[C@H](Oc4ccc(C#N)c(Cl)c4)CC3)nn2)CC1)C1CCN(c2cc3c(cc2F)C(=O)N(C2CCC(=O)NC2=O)C3=O)CC1 (stereo partly drawn) [Compound 119],DC50,[1],< 10 nM
same,Dmax,,> 80%
"N#Cc1ccc(O[C@H]2CC[C@H](NC(=O)c3nnc(N4CC5(CCN(CC6CCN(c7cc8c(cc7F)C(=O)N(C7CCC(=O)NC7=O)C8=O)CC6)CC5)C4)s3)CC2)cc1Cl (stereo partly drawn) [Compound 107, N-((1r,4r)-4-(3-chloro-4-cyanophenoxy)cyclohexyl)-5-(7-((1-(2-(2,6-dioxopiperidin-3-yl)-6-fluoro-1,3-dioxoisoindolin-5-yl)piperidine-4-yl)methyl)-2,7-diazaspiro[3.5]nonan-2-yl)-1,3,4-thiadiazole-2-carboxamide]",DC50,[3],< 10 nM
same,Dmax,"AR degradation, VCaP cells, 16 h, ELISA, Table 3-2, read-out: Dmax (%)",> 80%
"N#Cc1ccc(O[C@H]2CC[C@H](NC(=O)c3cnc(N4CCN(C5CC6(CCN(c7cc8c(cc7F)C(=O)N(C7CCC(=O)NC7=O)C8=O)CC6)C5)CC4)cn3)CC2)cc1Cl (stereo partly drawn) [Compound 277, N-((1r,4r)-4-(3-chloro-4-cyanophenoxy)cyclohexyl)-5-(4-(7-(2-(2,6-dioxopiperidin-3-yl)-6-fluoro-1,3-dioxoisoindolin-5-yl)-7-azaspiro[3.5]nonan-2-yl)piperazin-1-yl)pyrazine-2-carboxamide]",DC50,[1],10 to 100 nM
same,Dmax,[2],> 80%
C[C@H]1CN(C[C@@H]2[C@H]3CN(c4cc5c(cc4F)C(=O)N(C4CCC(=O)NC4=O)C5=O)C[C@@H]23)CCN1c1cnc(C(=O)N[C@H]2CC[C@H](Oc3ccc(C#N)c(Cl)c3)CC2)cn1 (stereo partly drawn) [Compound 171],DC50,[1],10 to 100 nM
same,Dmax,[2],> 80%
"CC1(C)[C@H](Oc2ccc(C#N)c(Cl)c2)C(C)(C)[C@H]1N1Cc2nc(C#CC3CC(N4CC5CN(c6ccc7c(c6)C(=O)N(C6CCC(=O)NC6=O)C7=O)CC5C4)C3)ccc2C1=O (stereo partly drawn) [Compound 359, 2-Chloro-4-((1r,3r)-3-(2-((3-(5-(2-(2,6-dioxopiperidin-3-yl)-1,3-dioxoisoindolin-5-yl)hexahydropyrrolo[3,4-c]pyrrol-2(1H)-yl)cyclobutyl)ethynyl)-5-oxo-5,7-dihydro-6H-pyrrolo[3,4-b]pyridin-6-yl)-2,2,4,4-tetramethylcyclobutoxy)benzonitrile]",DC50,[1],10 to 100 nM
N#Cc1ccc(O[C@H]2CC[C@H](NC(=O)c3noc(N4CCC(CN5CCC6(CC5)CN(c5ccc7c(c5)C(=O)N(C5CCC(=O)NC5=O)C7=O)C6)CC4)n3)CC2)cc1Cl (stereo partly drawn) [Compound 415],DC50,,< 10 nM
same,Dmax,,> 80%
N#Cc1ccc(O[C@H]2CC[C@H](NC(=O)c3ccc(N4CCC(N5CC6(CCN(c7ccc8c(c7)C(=O)N(C7CCC(=O)NC7=O)C8=O)CC6)C5)CC4)nn3)CC2)cc1Cl (stereo partly drawn) [Compound 78],DC50,[1],< 10 nM
same,Dmax,[2],> 80%
"N#Cc1ccc(OC2CCC(NC(=O)c3cnc(N4CCC(CN5CC6(CCN(c7cc8c(cc7F)C(=O)N(C7CCC(=O)NC7=O)C8=O)CC6)C5)CC4)cn3)CC2)cc1Cl (stereo not drawn) [Compound 234, N-((1r,4r)-4-(3-chloro-4-cyanophenoxy)cyclohexyl)-5-(4-((7-(2,6-dioxopiperidin-3-yl)-6-fluoro-1,3-dioxoisoindolin-5-yl)-2,7-diazaspiro[3.5]nonan-2-yl)methyl)piperidin-1-yl)pyrazine-2-carboxamide]",DC50,[1],< 10 nM
same,Dmax,[2],> 80%
